Where two headings read alike, the source gives them in different places.
Columns and labels:
[1] = biological target: T1, fusion protein Tel/PDGF-Rβ (BaF3 Tel/PDGF cells) (Homo sapiens, UniProt P09619); assay: Inhibition of PDGF-Rβ tyrosine kinase activity: proliferation of BaF3 Tel/PDGF cells (CellTiter-Glo, 72 h); format: cell-based, murine; conditions: 72 hours incubation, read-out: IC50 (concentration that inhibits 50% of the proliferation of the BaF3 Tel/PDGF cells)
T1 construct: the transmembrane and intracellular part of the PDGF-Rβ receptor; N-terminal part of the Tel transcription factor (ETV6); expressed in transfected cells; host or cells: murine haematopoietic cell line BaF/3; the other entry of the earlier key: ETV6 (P41212, Transcription factor ETV6)
Method: Measurement of Inhibition of the Tyrosine Kinase Activity of the PDGF Beta (PDGF-Rβ) (Baf-3 tel/PDGFIRβ) Receptor:
This test consists in evaluating the effects of the compounds on the tyrosine kinase activity of the PDGF beta receptor.
The inhibitory effect of the compounds according to the invention towards the tyrosine kinase activity of the PDGF-R receptor was evaluated on the murine haematopoietic cell line BaF/3 transfected with a plasmid coding for the fusion protein Tel/PDGF-Rβ. This fusion protein is found in chronic myelomonocytic myeloid leukaemias (CMML). It comprises the N-terminal part of the Tel transcription factor and the transmembrane and intracellular part of the PDGF-Rβ receptor. This fusion protein is present in dimerized form (presence of an oligomerization domain in the N-terminal part of Tel) and, as a result, leads to constitutive activity of the kinase domain of PDGF-Rβ. This line BaF3 Tel/PDGF has been described in the literature several times and especially, in detailed manner, in the article by M. Carroll et al., PNAS, 1996, 93, 14845-14850.
The BaF3 Tel/PDGF cells are washed with phosphate buffer and inoculated in 96-well plates, at a density of 5×10^4 cells/ml ([…]), in RPMI 1640 containing 10% FCS, in the presence or absence of the test compounds. After incubation for 72 hours, the viable cells are quantified by measuring the cellular ATP by means of the CellTiter-Glo® kit (Promega, Cat G7571). The cells are treated according to the instructions given by the kit manufacturer, and the luminescence is measured using a Luminoskan (Ascent, Labsystem) with the following parameters: measurement: single; integration time: 1000 ms, lag time: 5 s.
It is thus seen that the compounds according to the invention have inhibitory activity on the tyrosine kinase activity of PDGF-Rβ. This activity is given by the concentration that inhibits 50% of the proliferation of the BaF3 Tel/PDGF cells (IC50).

[2] = biological target: T2, fusion protein Tel/PDGF-R (PDGF-Rβ kinase domain) in HEK cells (Homo sapiens, UniProt P09619); assay: Ex vivo activity: plasma of orally treated mice tested on PDGF-R autophosphorylation in HEK Tel/PDGF-R cells (ELISA); set-up: species or system female Balb/c mice; conditions: HEK293, mouse, po, 30 mg/kg po, read-out: % inhibition of autophosphorylation of PDGFR tyrosine kinase in HEK cells
T2 construct: the transmembrane and intracellular part of the PDGF-Rβ receptor; N-terminal part of the Tel transcription factor (ETV6); expressed in transfected cells; host or cells: HEK cells (transient transfection); the other entry of the earlier key: ETV6 (P41212, Transcription factor ETV6)
Method: Ex vivo activity of the compounds of the invention was measured. These compounds are thus administered orally to female Balb/c mice at a dose of 10, 30 or 100 mg/kg in suspension or in solution in a vehicle such as methylcellulose/Tween and the inhibition of the tyrosine kinase activity is measured in vitro in a cell test, using plasma collected at 15 minutes, 1 hour and 4 hours.
1) Protocol for Administration of the Products to the Mice
The products are prepared in a mortar with 0.5% Tween 80 and 0.6% methylcellulose qs final volume. Depending on the case, preparations of different vehicles may be used: water, mixture of labrasol solutol 5% glucose-water. The suspended or dissolved products are administered by gavage (10 ml/kg) to female Balb/c mice 8 to 15 weeks old.
The animals are then collected at the time given by the protocol (15 min, 1 hour, 4 hours, 16 hours).
The animals are anaesthetized by intraperitoneal injection (10 ml/kg) of a ketamine (0.1 g/kg)-xylazine (20 mg/kg) mixture. […] The blood sample is collected from the vein or the artery using a dry syringe and needle. The blood is immediately transferred into heparin lithium tubes (BD microtainer). Centrifugation for 3 minutes at 12 000 rpm allows recovery of the plasma, on which the biochemical test may be performed after storage by freezing at −20° C.
2) Preparation of the HEK Tel/PDGF-R Cells and Measurement of the Phosphorylation of PDGF-R
In order to detect the ex vivo activity of the products using the mouse plasmas, the HEK cells are transiently transfected beforehand with an expression vector coding for the fusion protein Tel/PDGF-R (fusion protein described previously). After 24 hours of transfection, the cells are deprived of serum overnight and then incubated for 30 minutes with the animal plasmas treated with the products of the invention. The cells are then lysed in RIPA buffer, and detection of the phosphorylation of PDGF-Rβ is then performed via the ELISA technique, using a commercial kit (R&D Systems, DYC1767). The results are expressed as a percentage of inhibition of the autophosphorylation.
In this test of measurement of the ex vivo activity, the effect of the compounds of the invention is quantified by the percentage of inhibition of phosphorylation of the kinase domain of the PDGF-Rβ receptor in HEK cells, induced by the inhibitory activity of the product present in the plasma of the treated animals, as described in the following table: […]

T2 sequence (P09619 with tags, fused parts or gaps): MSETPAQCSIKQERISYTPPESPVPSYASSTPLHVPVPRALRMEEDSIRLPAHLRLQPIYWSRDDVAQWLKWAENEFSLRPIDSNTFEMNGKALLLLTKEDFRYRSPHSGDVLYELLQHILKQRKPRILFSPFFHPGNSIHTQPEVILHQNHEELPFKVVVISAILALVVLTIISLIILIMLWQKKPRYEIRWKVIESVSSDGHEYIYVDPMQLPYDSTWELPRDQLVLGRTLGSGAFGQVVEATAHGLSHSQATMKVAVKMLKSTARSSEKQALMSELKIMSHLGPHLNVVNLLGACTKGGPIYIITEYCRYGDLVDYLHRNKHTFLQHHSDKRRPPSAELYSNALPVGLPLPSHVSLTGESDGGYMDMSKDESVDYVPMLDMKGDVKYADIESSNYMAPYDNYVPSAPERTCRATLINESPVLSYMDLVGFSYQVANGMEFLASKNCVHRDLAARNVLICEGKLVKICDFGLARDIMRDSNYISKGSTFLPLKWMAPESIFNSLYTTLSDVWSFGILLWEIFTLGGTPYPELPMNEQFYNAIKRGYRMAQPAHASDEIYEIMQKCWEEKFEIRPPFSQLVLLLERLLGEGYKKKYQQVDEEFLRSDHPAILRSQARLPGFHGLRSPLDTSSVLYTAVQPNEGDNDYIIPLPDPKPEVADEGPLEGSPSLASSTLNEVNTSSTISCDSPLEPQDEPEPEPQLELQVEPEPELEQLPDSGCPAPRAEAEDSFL
T1 sequence (P09619 with tags, fused parts or gaps): as above

IC50 [1]	inhibition at 30 mg/kg ([2]; plasma collected at 15 min)	inhibition at 30 mg/kg ([2]; plasma collected at 1 h)	inhibition at 30 mg/kg ([2]; plasma collected at 4 h)	Structure (SMILES)
4.7 nM	80%	82%	75%	CCn1c(N)c(C(=O)NC)c(=O)c2ccc(-c3ccc(CC(=O)NCC4COCCN4C4CC4)cc3)nc21 (centres unmarked) [compound 33, 2-amino-7-[4-(2-{[(4-cyclopropylmorpholin-3-yl)methyl]amino}-2-oxoethyl)phenyl]-1-ethyl-N-methyl-4-oxo-1,4-dihydro-1,8-naphthyridine-3-carboxamide]
2 nM	85%	57%	74%	CCN1CC(F)(F)C[C@H]1CNC(=O)Cc1ccc(-c2ccc3c(=O)c(C(=O)NC)c(N)n(CC)c3n2)cc1 [compound 24, 2-amino-1-ethyl-7-{4-[2-({[(2S)-1-ethyl-4,4-difluoropyrrolidin-2-yl]methyl}-amino)-2-oxoethyl]phenyl}-N-methyl-4-oxo-1,4-dihydro-1,8-naphthyridine-3-carboxamide]
